According to patent US20250114389A1, “NUCLEOSIDES AND NUCLEOTIDES ANALOGS AS ANTIVIRAL AGENTS” (Emory University, priority 2021, published 2025):

Assays:
[1] = Cytotoxicity in CEM cells; type: cell-based, human; details: human, CEM lymphoblastoid cells
Procedure: (§1) The toxicity of the compounds was assessed in Vero, human PBM, CEM (human lymphoblastoid), MT-2, and HepG2 cells, as described previously (see Schinazi R. F., Sommadossi J.-P., Saalmann V., Cannon D. L., Xie M.-Y., Hart G. C., Smith G. A. & Hahn E. F. Antimicrob. Agents Chemother. 1990, 34, 1061-67). Cycloheximide was included as positive cytotoxic control, and untreated cells exposed to solvent were included as negative controls. The cytotoxicity IC50 was obtained from the concentration-response curve using the median effective method described previously (see Chou T.-C. & Talalay P. Adv. Enzyme Regul. 1984, 22, 27-55; Belen'kii M. S. & Schinazi R. F. Antiviral Res. 1994, 25, 1-11).

[2] = Cytotoxicity in Vero cells; details: African green monkey, Vero kidney cells
[3] = Cytotoxicity in Huh7 cells; type: cell-based; details: human
[4] = Cytotoxicity in PBM cells; type: cell-based, human; details: human
Procedure: as §1

SARS-CoV-2 [5] = experiment: Anti-SARS-CoV-2 activity in Vero cells (virus yield inhibition); type: cell-based
Calu3 cells = details: read-out: Cytotoxicity CC50 Calu3
Caco2 cells = details: read-out: Cytotoxicity CC50 Caco2
SARS-CoV-2 [6] = experiment: Anti-SARS-CoV-2 activity in Calu3 cells (virus yield inhibition); type: cell-based; details: Severe acute respiratory syndrome coronavirus 2, Calu-3, Table 1
SARS-CoV-2 [7] = experiment: Anti-SARS-CoV-2 activity in Caco2 cells (virus yield inhibition); details: for EC50: Severe acute respiratory syndrome coronavirus 2, Caco-2, read-out: Anti-SARS-CoV-2 Activity (Caco2) EC50; for EC90: Severe acute respiratory syndrome coronavirus 2, Caco-2, read-out: Anti-SARS-CoV-2 Activity (Caco2) EC90
Omicron [8] = experiment: microbe, parasite or virus in culture
Omicron [9] = experiment: Anti-Omicron activity in Calu-3; type: cell-based, SARS-CoV-2; details: Severe acute respiratory syndrome coronavirus 2
[10] = test system: CEM (human lymphoblastoid) cells; experiment: Cytotoxicity in CEM cells; type: cell-based
Procedure: as §1

Vero cells = experiment: Cytotoxicity in Vero cells; details: read-out: Cytotoxicity CC50 Vero; Vero cells
[11] = type: in vitro ADME; details: hamster, 10 μM
Procedure: An aliquot of 450 μL of human, mouse or hamster plasma were exposed to 10 μM of compound and incubated at 37° C. At 0, 5, 15, 30, 60, 90 and 120 min, 50 μL of plasma sample was mixed with 200 μL of ice-cold methanol (70%). 50 μL supernatant was dried and reconstituted in 100 μL H2O. Propantheline bromide was used as positive control. The supernatant was then subjected to LC-MS analysis (LC-MS condition: Instrument: Thermo TSQ Quantiva. Column: Kinetex […] (50×2.1 mm, […]). LC buffers: A): 0.1% formic acid, and B): acetonitrile. MRM methods: (269.2-112 positive), Indinavir (IS, 614.4-421.2 positive, IS)). The stability results are shown in FIGS. 2-4 (human plasma, mouse plasma and hamster plasma, respectively). Compound A is stable in human and mouse plasma up to 2 hours and stable up to […] in hamster plasma. Compound 23 was converted to compound A in hamster plasma in less than 5 min.

SARS-CoV-2 [12] = experiment: Anti-SARS-CoV-2 activity in HAE-ALI culture; type: cell-based; details: Severe acute respiratory syndrome coronavirus 2; HAE air-liquid interface
SARS-CoV-2 [13] = experiment: Anti-SARS-CoV-2 activity in Calu3 ALI culture; type: cell-based; details: Severe acute respiratory syndrome coronavirus 2, Calu-3; Calu3 air-liquid interface
Huh7 cells = experiment: Cytotoxicity in Huh7 cells; type: cell-based
human PBM cells = experiment: Cytotoxicity in PBM cells; type: cell-based
Procedure: as §1

[14] = Severe acute respiratory syndrome coronavirus 2, Table 2, read-out: Anti-SARS-CoV-2 activity in Vero cells EC50
[15] = Severe acute respiratory syndrome coronavirus 2, Table 2, read-out: Anti-SARS-CoV-2 activity in Vero cells EC90
[16] = Severe acute respiratory syndrome coronavirus 2, Table 1, read-out: Anti-SARS-CoV-2 Activity (Vero) EC50
[17] = Severe acute respiratory syndrome coronavirus 2, Table 1, read-out: Anti-SARS-CoV-2 Activity (Vero) EC90

Compound	CC50 [2] [µM]	EC50 (SARS-CoV-2 [6]) [µM]	EC90 (SARS-CoV-2 [6]) [µM]	EC50 (SARS-CoV-2 [5]; [16]) [µM]	EC90 (SARS-CoV-2 [5]; [17]) [µM]	EC50 (SARS-CoV-2 [7]) [µM]	EC90 (SARS-CoV-2 [7]) [µM]	also measured
CC(C)C(=O)OC[C@H]1O[C@@](C#N)(n2ccc(N)nc2=O)C(O)C1O (stereo partly shown) [drawing 133]	73.8	–	–	–	–	–	–	CC50 [1]: 15.8 µM; CC50 [3]: > 100 µM; CC50 [4]: 63.1 µM
N#C[C@@]1(n2ccc(=O)[nH]c2=O)O[C@H](CO)C(O)C1O (stereo partly shown) [drawing 130]	> 100	–	–	–	–	–	–	CC50 [1]: 12.1 µM; CC50 [3]: > 100 µM; CC50 [4]: > 100 µM
CC(C)C(=O)OC[C@H]1O[C@@](C#N)(n2ccc(=O)[nH]c2=O)C(O)C1O (stereo partly shown) [drawing 132]	> 100	–	–	–	–	–	–	CC50 [1]: 39 µM; CC50 [3]: 88.9 µM; CC50 [4]: > 100 µM
N#C[C@@]1(n2ncc(N)nc2=O)O[C@H](CO)C(O)C1O (stereo partly shown)	–	–	–	–	–	–	–	EC50 (SARS-CoV-2 [5]; [14]): 4 µM; EC90 (SARS-CoV-2 [5]; [15]): 9.8 µM
C[C@@H]1C[C@@H]([C@H](O)CC2CC(=O)NC(=O)C2)C(=O)[C@@H](C)C1 [Cyclohexamide]	–	–	–	–	–	–	–	CC50 (Calu3 cells): 10 µM; CC50 (Caco2 cells): 10 µM
CCCCCCCC(=O)OC[C@H]1O[C@@](C#N)(n2ccc(N)nc2=O)C(O)C1O (stereo partly shown) [drawing 123]	–	0.2	1.2	0.4	1.1	0.7	1.7	–
CCCCCCCC(=O)OC[C@H]1O[C@@](C#N)(n2ccc(N)nc2=O)C(O)C1O (stereo partly shown) [drawing 134]	45.7	–	–	–	–	–	–	CC50 [1]: 3.7 µM; CC50 [3]: 77.8 µM; CC50 [4]: > 100 µM
N#C[C@@]1(n2ccc(=O)[nH]c2=O)O[C@H](CO)C(O)C1O (stereo partly shown) [drawing 137]	–	–	–	–	–	–	–	EC50 (Omicron [8]; Severe acute respiratory syndrome coronavirus 2, Caco-2, read-out: Anti-Omicron Activity (Caco-2) EC50): > 10 µM; EC90 (Omicron [8]; Severe acute respiratory syndrome coronavirus 2, Caco-2, read-out: Anti-Omicron Activity (Caco-2) EC90): > 10 µM; EC50 (Omicron [9]): 3.8 µM; EC90 (Omicron [9]): > 10 µM
N#C[C@]1(c2ccc3c(N)ncnn23)O[C@@H](CO)C(O)C1O (stereo partly shown)	–	–	–	–	–	–	–	EC50 (SARS-CoV-2 [5]; [14]): > 10 µM
CC(C)[C@H](N)C(=O)OC1C(O)[C@](C#N)(n2ccc(N)nc2=O)O[C@@H]1CO (stereo partly shown) [drawing 135]	93.5	–	–	–	–	–	–	CC50 [4]: > 100 µM
CCC(CC)COC(=O)[C@H](C)N[P@](=O)(OC[C@@H]1O[C@](C#N)(c2ccc3c(N)ncnn23)C(O)C1O)Oc1ccccc1 (stereo partly shown)	–	–	–	–	–	–	–	EC50 (SARS-CoV-2 [5]; [14]): < 10 µM
O=c1nc(NO)ccn1[C@@H]1O[C@H](CO)[C@@H](O)[C@H]1O [NHC, N^4-hydroxycytidine, reference compound]	–	0.6	2	0.2	0.42	1	> 10	CC50 [10]: 2.6 µM; CC50 (Vero cells): 16.5 µM
CC(C)C(=O)OC[C@H]1O[C@@](C#N)(n2ccc(=O)[nH]c2=O)C(O)C1O (stereo partly shown) [drawing 121]	–	0.2	0.7	> 10	–	2.1	5.7	–
CC(C)C(=O)OC[C@H]1O[C@@](C#N)(n2ccc(N)nc2=O)[C@H](O)[C@@H]1O [Compound 23, ((2R,3S,4R,5R)-5-(4-Amino-2-oxopyrimidin-1(2H)-yl)-5-cyano-3,4-dihydroxytetrahydro-furan-2-yl)methyl isobutyrate]	–	–	–	–	–	–	–	time for conversion to compound A in plasma [11]: less than 5 min
CC(C)[C@H](N)C(=O)OC1C(O)[C@](C#N)(n2ccc(N)nc2=O)O[C@@H]1CO (stereo partly shown) [drawing 124]	–	0.3	4.3	2.3	6.6	3.3	8.3	–
N#C[C@@]1(n2ccc(=O)[nH]c2=O)O[C@H](CO)C(O)C1O (stereo partly shown) [drawing 119]	–	0.08	0.7	4.7	8.5	0.02	0.2	–
CC(C)C(=O)OC[C@H]1O[C@@](C#N)(n2ccc(N)nc2=O)C(O)C1O (stereo partly shown) [drawing 122]	–	1.2	4	1.2	2.2	0.5	2.5	–
CC(C)OC(=O)[C@H](C)N[P@](=O)(OC[C@H]1O[C@@](C#N)(n2ccc(N)nc2=O)C(O)C1O)Oc1ccccc1 (stereo partly shown) [drawing 120]	–	> 10	> 10	> 10	> 10	0.7	2.1	–
N#C[C@@]1(c2ccc3c(N)ncnn23)O[C@H](CO)C(O)C1O (stereo partly shown)	–	–	–	–	–	–	–	EC50 (SARS-CoV-2 [5]; [14]): < 10 µM
CCC(CC)COC(=O)[C@H](C)N[P@](=O)(OC[C@H]1O[C@@](C#N)(c2ccc3c(N)ncnn23)[C@H](O)[C@@H]1O)Oc1ccccc1 [Remdesivir, reference compound]	> 100	–	0.6	1	3.5	0.004	0.04	CC50 [10]: 12 µM; EC90 (SARS-CoV-2 [12]): 1.2 µM; EC50 (SARS-CoV-2 [13]): 0.9 µM; EC90 (SARS-CoV-2 [13]): 4.6 µM; CC50 (Huh7 cells): 1.5 µM; CC50 (human PBM cells): 6.4 µM; EC50 (SARS-CoV-2 [5]; [14]): 1.2 µM; EC90 (SARS-CoV-2 [5]; [15]): 3.6 µM
CC(C)OC(=O)[C@H](C)N[P@](=O)(OC[C@H]1O[C@@](C#N)(n2ccc(N)nc2=O)C(O)C1O)Oc1ccccc1 (stereo partly shown) [drawing 131]	> 100	–	–	–	–	–	–	CC50 [1]: > 100 µM; CC50 [3]: > 100 µM; CC50 [4]: > 100 µM
